For one test, the target named is T1, 5HT1A receptors (Rattus norvegicus, UniProt P19327).
T1 construct: membranes of the rat hippocampus; from tissue; host or cells: rat hippocampus membranes
T1 sequence (P19327 1-422): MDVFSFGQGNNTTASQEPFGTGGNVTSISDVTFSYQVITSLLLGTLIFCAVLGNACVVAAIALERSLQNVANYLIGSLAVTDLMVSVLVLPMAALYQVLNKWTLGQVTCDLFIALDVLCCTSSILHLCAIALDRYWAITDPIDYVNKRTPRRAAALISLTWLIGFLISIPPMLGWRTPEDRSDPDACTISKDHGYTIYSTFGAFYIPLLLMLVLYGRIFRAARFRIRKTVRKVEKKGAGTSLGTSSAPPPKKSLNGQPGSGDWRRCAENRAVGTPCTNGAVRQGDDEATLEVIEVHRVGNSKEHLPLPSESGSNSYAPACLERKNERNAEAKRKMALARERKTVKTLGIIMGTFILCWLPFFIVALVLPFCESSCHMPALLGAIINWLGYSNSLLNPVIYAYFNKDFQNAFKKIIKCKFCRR
The test can be described thus: Binding test: displacement of [^3 H]-8-OH-DPAT from membranes of the rat hippocampus (5HT1A). The procedure:
(§1) This test is carried out according to the protocol of PEROUTKA, S.J. ["Selective labelling of 5-HT1A and 5HT1B binding sites in bovine brain" BRAIN RESEARCH 344, p. 167-171 (1985)]. In this test, the affinity for 5HT1A receptors is determined by the Capacity of the compounds to displace [^3 H]-8-OH-DPAT from the membranes of the rat hippocampus; similarly, the affinity for 5HT1B receptors is determined by the capacity of the compounds to displace [^3 H]-5HT from the membranes of the rat striatum.
(§2) The results recorded in Table II below show the pKi values calculated according to the abovementioned protocol.

Another test deals with T2, 5HT1B receptors (Rattus norvegicus, UniProt P28564).
T2 construct: membranes of the rat striatum; from tissue; host or cells: rat striatum membranes
T2 sequence (P28564 whole entry): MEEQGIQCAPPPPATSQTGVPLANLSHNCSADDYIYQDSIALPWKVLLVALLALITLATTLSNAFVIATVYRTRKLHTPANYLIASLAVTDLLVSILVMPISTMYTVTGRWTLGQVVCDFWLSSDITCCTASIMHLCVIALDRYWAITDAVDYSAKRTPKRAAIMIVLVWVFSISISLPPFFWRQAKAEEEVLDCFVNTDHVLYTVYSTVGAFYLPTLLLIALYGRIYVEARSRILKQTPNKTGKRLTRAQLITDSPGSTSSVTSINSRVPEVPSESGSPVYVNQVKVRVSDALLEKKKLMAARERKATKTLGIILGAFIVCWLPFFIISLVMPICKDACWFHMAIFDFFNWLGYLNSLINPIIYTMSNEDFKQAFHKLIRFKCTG
Nature of the test: Binding test: displacement of [^3 H]-5HT from membranes of the rat striatum (5HT1B). The procedure:
as §1, §2

The subject of a further test is 5HT1B. Nature of the test: Penile erection test (5HT1B agonist potential). In kind it is in vivo. The conditions noted are these: rats; for minimal effective dose: Rattus norvegicus, sc, administered subcutaneously, read-out: ERECTION OF THE PENIS, minimum dose which leads to an erection of the penis, subcutaneous; for ERECTION OF THE PENIS, activity when administered orally: administered orally (PO). An excerpt: This test, carried out according to the protocol of BERENDSEN H.H.G. and BROEKKAMP C.L.E. ["Drug induced penile erections in rats: indication of serotonin 1B receptor mediation--EUROPEAN J. PHARMACOL. 135, 279-287 (1987")]enables the 5HT1B agonist potentials of the various compounds to be assessed.
The results recorded in Table II below show the minimum dose in mg.kg^-1 administered subcutaneously which leads to an erection of the penis in rats, as well as the activity when administered orally.

[1] abbreviates: rat hippocampus membranes, [^3 H]-8-OH-DPAT, read-out: BINDING pKi 5HT1A (converted).
The mark [2] stands for this setting: rat striatum membranes, [^3 H]-5HT, read-out: BINDING pKi 5HT1B (converted).

Like-named read-outs stand apart in the source and are kept apart here.

On to `FC(F)(F)c1ccc(N2CCNCC2)nc1` [Compound 1, 1-(5-trifluoromethyl-2-pyridinyl)piperazine], for which the Ki on 5HT1A receptors (setting [1]) is > 10000 nM. The Ki at 5HT1B receptors (setting [2]) was 501 nM. Further, in the test with 5HT1B, the minimal effective dose worked out at 1 mg/kg and the “ERECTION OF THE PENIS, activity when administered orally” value (from here on “ERECTION OF THE PENIS, activity”) was > 46 mg/kg.
The like results for `FC(F)(F)c1ccnc(N2CCNCC2)c1` [Compound 2, 1-(4-trifluoromethyl-2-pyridinyl)piperazine] were, in that order, 2510 nM, 126 nM, 1 mg/kg and 2.2 mg/kg.
As for `FC(F)(F)c1ccc(N2CCNCC2)nc1Cl` [Compound 3], the Ki on 5HT1A receptors is 2510 nM. At 5HT1B receptors, the Ki was 100 nM. Moreover, in the test with 5HT1B, the minimal effective dose was 0.46 mg/kg and the “ERECTION OF THE PENIS, activity” value was 4.6 mg/kg.
As for `FC(F)(F)c1cnc(N2CCNCC2)cc1C(F)(F)F` [Compound 4, 1-[4,5-bis(trifluoromethyl)-2-pyridinyl]piperazine], the Ki at 5HT1A receptors (setting [1]) is 79400 nM. In addition, the Ki on 5HT1B receptors (setting [2]) was 398 nM. In the test with 5HT1B, the minimal effective dose was 10 mg/kg and the “ERECTION OF THE PENIS, activity” value stood at 2.2 mg/kg.
The like results for `FC(F)(F)c1cnc(N2CCNCC2)c(Cl)c1` [Compound 5, 1-(3-chloro-5-trifluoromethyl-2-pyridinyl)piperazine] were, in that order, 3980 nM, 501 nM, 4.6 mg/kg and 10 mg/kg.
